Experimental data as given in patent US8114895B2, “Use of bipyridine compound ‘Caerulomycin A’ derivatives and analogs thereof as immunosuppressive agents” (Council of Science and Industrial Research, priority 2005, dated 2012).

Key:
J774 = assay: Expression of B7-1 and B7-2 on J774; assay type: cell-based
CD4^+ T cells = assay: Proliferation of CD4+ T cells obtained from antigen-primed animals; assay type: cell-based; details: CD4+ T cells from OVA-FCA injected mice, stimulated with antigen-pulsed γ-irradiated splenocytes
Protocol: A single cell suspension of mice splenocytes obtained from OVA-CFA primed mice. The red blood cells were depleted by treatment with hemolytic Gey's solution. The adherent cells were removed by plating onto plastic Petri plates for 2 h at 37° C. and 7% CO2. The non-adherent cells were loaded (1×10^6 cells/ml) onto the nylon wool column and incubated for 90 min at 37° C. After the incubation period, warm RPMI was passed into the column to elute T lymphocytes. The T cells were washed with RPMI and incubated with anti-Mac3 (TIB-168), anti-IA^d (MKD6), anti-dendritic cell (TIB-227), anti-IgM and anti-CD8 Abs for 45 min at 4° C. […] The purity of the cells was analyzed by flow-cytometry of the cells stained with anti-CD3 and CD4 Abs. […]
Examples establishing the role of Caerulomycin A [isolated from a novel species of Actinoalloteichus] in inducing immunosuppression based on the following: • Splenocytes of BALB/c mice were stimulated with either ConA (1 μg/ml and 2 μg/ml) or LPS (5 μg/ml and 10 μg/ml) and were cultured with different concentrations of Caerulomycin A (0.0003-0.1 μg/ml). […] Radioactivity incorporated was measured by liquid scintillation counting. • Antigen ovalbumin (100 μg/ml) emulsified in Freund's complete adjuvant was injected in a group consisting of 5 BALB/c mice. […] Radioactivity incorporated was measured by liquid scintillation. […]

COc1cc(/C=N/O)nc(-c2ccccn2)c1 [Caerulomycin A, (E)-4-methoxy-2,2′-bipyridine-6-carbaldehyde oxime]
expression of B7-1 (J774): no major change | expression of B7-2 (J774): increased the expression | proliferation of antigen stimulated CD4+ T cells (CD4^+ T cells): significantly suppressed the proliferation
